Our source for the IC50 values is patent US10167292B2, “Benzodiazepines as bromodomain inhibitors” (Catalyst Therapeutics Pty Ltd, priority 2015, dated 2019).

The structures appear in SMILES notation. pIC50: −log10 of the molar value.

One test concerns the target BRD-3 (Domain 1) (Homo sapiens (Human), UniProt Q15059). As to the kind of experiment: AlphaScreen BRD binding assay, BRD-3 (Domain 1). The settings on record: acetyl-histone H4 peptide 2.5 nM, protein 80 nM. As for the experimental part: (§1) Biological Characterization Assay Conditions Binding Assay
BRD binding and inhibition was assessed by measuring the interaction of biotinylated acetyl-histone H4 peptide (Anaspec #64989) with the BRD target protein utilising AlphaScreen® technology (Perkin Elmer). In a white 384-well low volume plate (Greiner #784076), 100 nL of compound series in DMSO (0.5% final concentration) was added to the BRD target protein (80 nM final). After 30 min incubation at RT, H4 peptide was added to a final concentration of 2.5 nM. AlphaScreen streptavidin donor beads and AlphaScreen nickel chelate acceptor beads were added to a final concentration of 10 ug/mL each and allowed to incubate in a darkened environment for 1 h at RT. Plates were read on an EnVision plate reader (Perkin Elmer) and IC50's calculated using a four parameter non-linear curve fit.
These conditions are identical for all BRDs screened except BRD2D2 which uses 160 nM protein and 1.25 nM peptide.
On the technique in general: Alpha assays give light when donor and acceptor beads are brought close together.

For a further test, the target named is BRD-4 (Domain 1) (Homo sapiens (Human), UniProt O60885). In words: AlphaScreen BRD binding assay, BRD-4 (Domain 1). The settings on record: acetyl-histone H4 peptide 2.5 nM, protein 80 nM. The protocol: as §1
(§2) AlphaScreen streptavidin donor beads and AlphaScreen nickel chelate acceptor beads were added to a final concentration of 10 ug/mL each and allowed to incubate in a darkened environment for 1 h at RT. Plates were read on an EnVision plate reader (Perkin Elmer) and IC50's calculated using a four parameter non-linear curve fit.

Another test deals with BRD-4 (Domain 2) (Homo sapiens (Human), UniProt O60885). In words: AlphaScreen BRD binding assay, BRD-4 (Domain 2). The settings on record: acetyl-histone H4 peptide 2.5 nM, protein 80 nM. The protocol:
as §1, §2

The next test has as its system HL-60. In words: Cell proliferation assay (CellTiter-Glo), HL-60. It is filed as cell-based. The settings on record: Homo sapiens, HL-60 cells, 72 h. The protocol: The cells were prepared in the required fashion (suspension or adherent). The cells were initially washed once in the culture medium that they would be finally treated in. Following this 10 ml of the test medium was added and the cells. The mixture was pipetted gently several times.
The cells were counted and then the volume was spun down to the volume necessary for the total number of cells needed. The cells were then resuspended in the appropriate test medium to the desired concentration. In general, the final concentration of non-adherent cells was 2×10^5 cells/ml i.e. 10,000 cells per 50 μ1. Once the desired concentration had been reached, 50 µl of the cells were added to the appropriate wells and the cells were incubated for 72 h at 37° C.
CellTiter-Glo Luminescent Assay (Kit G7571—See Promega's Instruction Manual for Additional Details):
Both reagents were pre-warmed to RT. The buffer was thawed in a 37° C. water bath until it had just completely thawed. It was then left on a bench at RT for at least 30 min.
Following this the substrate and buffer were mixed together. To ensure that the substrate was dissolved, the mixture was inverted several times.
The cell culture plates were removed from the incubator and were then allowed to adjust to RT for at least 30 min.
Afterwards 40 μL of the reagent was added to 100 μL of the culture medium. […] The plates were then incubated for 10 min on the bench. The luminescence could then be read using a luminescence plate reader.
On the technique in general: ATP-based viability assays read luminescence as a measure of living cells.

Another test has as its target BRD-2 (Domain 2) (Homo sapiens (Human), UniProt P25440). In words: AlphaScreen BRD binding assay, BRD-2 (Domain 2). As to conditions: 160 nM protein and 1.25 nM peptide. As for the experimental part: as §1, §2
The next test has as its target BRD-2 (Domain 1) (Homo sapiens (Human), UniProt P25440). In words: AlphaScreen BRD binding assay, BRD-2 (Domain 1). As to conditions: acetyl-histone H4 peptide 2.5 nM, protein 80 nM. As for the experimental part:
as §1, §2

Chain of BRD-2 (Domain 1) (P25440 74-180): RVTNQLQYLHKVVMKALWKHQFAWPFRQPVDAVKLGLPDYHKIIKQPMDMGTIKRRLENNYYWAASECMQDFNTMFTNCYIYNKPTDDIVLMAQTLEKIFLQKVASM
Chain of BRD-3 (Domain 1) (Q15059 34-140): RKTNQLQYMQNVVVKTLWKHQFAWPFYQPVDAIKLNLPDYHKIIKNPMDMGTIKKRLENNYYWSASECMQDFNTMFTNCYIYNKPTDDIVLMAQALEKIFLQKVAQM
Chain of BRD-2 (Domain 2) (P25440 344-453): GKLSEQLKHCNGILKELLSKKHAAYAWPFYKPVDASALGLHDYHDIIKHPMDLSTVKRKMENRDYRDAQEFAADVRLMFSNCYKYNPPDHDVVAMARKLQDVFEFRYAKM

In the case of `Cc1nnn2c1-c1ccc(C(=O)NC(C)c3ccc(F)cc3)cc1N(c1ccc(Cl)cc1)CC2` (stereo in doubt) [Example 33, 7-(4-chlorophenyl)-N—((R)-1-(4-fluorophenyl)ethyl)-1-methyl-6,7-dihydro-5H-benzo[f][1,2,3]triazolo[1,5-d][1,4]diazepine-9-carboxamide], the pIC50 – broadly, −log10 of the IC50, conventionally taken in molar units – at BRD-3 (Domain 1) was greater than 7.00.

Regarding `Cc1nnn2c1-c1ccccc1N(c1ccccc1)CC2` [Example 5, 1-methyl-7-phenyl-6,7-dihydro-5H-benzo[f][1,2,3]triazolo[1,5-d][1,4]diazepine], the pIC50 on BRD-4 (Domain 1) and on BRD-4 (Domain 2) was greater than 7.00 in each case.

`Cc1nnn2c1-c1ccccc1N(c1ccc(Cl)cc1)CC2` [Example 11, 7-(4-chlorophenyl)-1-methyl-6,7-dihydro-5H-benzo[f][1,2,3]triazolo[1,5-d][1,4]diazepine] showed a negative-log IC50 (pIC50) with HL-60 of 5.30 to 6.00.

In turn, `Cc1nnn2c1-c1ccc(-c3cnc(N)nc3)cc1N(c1ccc(Cl)cc1)CC2` [Example 12, 5-(7-(4-chlorophenyl)-1-methyl-6,7-dihydro-5H-benzo[f][1,2,3]triazolo[1,5-d][1,4]diazepin-9-yl)pyrimidin-2-amine] showed a pIC50 with HL-60 greater than 6.00.

On to `Cc1nnn2c1-c1ccccc1N(c1ccc(Cl)cc1)C[C@@H]2C` [Example 13, 7-(4-chlorophenyl)-1,5-dimethyl-6,7-dihydro-5H-benzo[f][1,2,3]triazolo[1,5-d][1,4]diazepine], for which the values for the pIC50 on BRD-2 (Domain 2), in the test on HL-60 and on BRD-2 (Domain 1) were greater than 7.00, greater than 6.00 and greater than 7.00, respectively.

For the compound `Cc1nnn2c1-c1ccc(Br)cc1N(c1ccc(Cl)cc1)CC2C` (centres unmarked) [Example 14, 9-Bromo-7-(4-chlorophenyl)-1,5-dimethyl-6,7-dihydro-5H-benzo[f][1,2,3]triazolo[1,5-d][1,4]diazepine], the pIC50 with HL-60 is greater than 6.00.

Turning to `Cc1nnn2c1-c1ccccc1N(c1ccc(Cl)cc1)C[C@H]2C` [Example 16, (5R)-7-(4-chlorophenyl)-1,5-dimethyl-6,7-dihydro-5H-benzo[f][1,2,3]triazolo[1,5-d][1,4]diazepine], the pIC50 at BRD-2 (Domain 2) was greater than 7.00; in the test with HL-60, greater than 6.00; on BRD-2 (Domain 1), greater than 7.00.

As to `Cc1nnn2c1-c1ccc(Cn3cccn3)cc1N(c1ccc(Cl)cc1)CC2` [Example 20, 9-((1H-pyrazol-1-yl)methyl)-7-(4-chlorophenyl)-1-methyl-6,7-dihydro-5H-benzo[f][1,2,3]triazolo[1,5-d][1,4]diazepine], the pIC50 on BRD-3 (Domain 1), at BRD-4 (Domain 1) and at BRD-4 (Domain 2) was greater than 7.00 each time.

As to `Cc1nnn2c1-c1ccccc1N(c1ccc(Cl)cc1)CC2CCO` (centres unmarked) [Example 21, 2-(7-(4-chlorophenyl)-1-methyl-6,7-dihydro-5H-benzo[f][1,2,3]triazolo[1,5-d][1,4]diazepin-5-yl)ethanol], the negative-log IC50 (pIC50) on BRD-3 (Domain 1) was greater than 7.00; on BRD-4 (Domain 1), greater than 7.00; at BRD-2 (Domain 2) it was greater than 7.00; at BRD-4 (Domain 2), greater than 7.00; in the test on HL-60 it was 5.30 to 6.00; on BRD-2 (Domain 1) it was 6.00 to 7.00.

With `Cc1nnn2c1-c1ccccc1N(c1cccc(Br)c1)CC2` [Example 22, 7-(3-Bromophenyl)-1-methyl-6,7-dihydro-5H-benzo[f][1,2,3]triazolo[1,5-d][1,4]diazepine], the pIC50 is greater than 7.00 on BRD-3 (Domain 1); greater than 7.00 on BRD-4 (Domain 1); greater than 7.00 at BRD-2 (Domain 2); greater than 7.00 at BRD-4 (Domain 2); 5.30 to 6.00 with HL-60; 6.00 to 7.00 at BRD-2 (Domain 1).

Take `C=Cc1cccc(N2CCn3nnc(C)c3-c3ccccc32)c1` [Example 23, 1-Methyl-7-(3-vinylphenyl)-6,7-dihydro-5H-benzo[f][1,2,3]triazolo[1,5-d][1,4]diazepine]: the negative logarithm of the IC50 (pIC50) was greater than 7.00 on BRD-3 (Domain 1); greater than 7.00 on BRD-4 (Domain 1); greater than 7.00 at BRD-2 (Domain 2); greater than 7.00 on BRD-4 (Domain 2); 5.30 to 6.00 in the test on HL-60; 6.00 to 7.00 on BRD-2 (Domain 1).

As for `Cc1nnn2c1-c1ccccc1N(c1cccc(C(O)CO)c1)CC2` (centres unmarked) [Example 24, 1-(3-(1-methyl-5H-benzo[f][1,2,3]triazolo[1,5-d][1,4]diazepin-7(6H)-yl)phenyl)ethane-1,2-diol], the pIC50 on BRD-3 (Domain 1) is greater than 7.00; on BRD-4 (Domain 1), greater than 7.00; at BRD-2 (Domain 2), greater than 7.00; on BRD-4 (Domain 2), greater than 7.00; in the test with HL-60, 5.30 to 6.00; on BRD-2 (Domain 1) it was greater than 7.00.

For the compound `FC(F)c1nnn2c1-c1ccccc1N(c1ccc(Cl)cc1)CC2` [Example 29, 7-(4-chlorophenyl)-1-(difluoromethyl)-6,7-dihydro-5H-benzo[f][1,2,3]triazolo[1,5-d][1,4]diazepine], the pIC50 at BRD-4 (Domain 1) is 6.00 to 7.00; at BRD-2 (Domain 2) it was 6.00 to 7.00; on BRD-4 (Domain 2), 6.00 to 7.00; on BRD-2 (Domain 1) it was less than 6.00.

As for `Cc1nnn2c1-c1ccc(C(=O)NCc3ccccc3)cc1N(c1ccc(Cl)cc1)CC2` [Example 37, N-benzyl-7-(4-chlorophenyl)-1-methyl-6,7-dihydro-5H-benzo[f][1,2,3]triazolo[1,5-d][1,4]diazepine-9-carboxamide], the pIC50 at BRD-4 (Domain 1) and on BRD-4 (Domain 2) was greater than 7.00 throughout.

As for `Cc1nnn2c1-c1ccc(C(=O)NC(c3ccccc3)c3ccccc3)cc1N(c1ccc(Cl)cc1)CC2` [Example 38, N-benzhydryl-7-(4-chlorophenyl)-1-methyl-6,7-dihydro-5H-benzo[f][1,2,3]triazolo[1,5-d][1,4]diazepine-9-carboxamide], the pIC50 was greater than 7.00 on BRD-3 (Domain 1), greater than 7.00 at BRD-2 (Domain 2) and 6.00 to 7.00 on BRD-2 (Domain 1).

Turning to `Cc1nnn2c1-c1ccc(C(N)=O)cc1N(c1ccc(Cl)cc1)CC2` [Example 42, 7-(4-chlorophenyl)-1-methyl-6,7-dihydro-5H-benzo[f][1,2,3]triazolo[1,5-d][1,4]diazepine-9-carboxamide], the pIC50 on BRD-4 (Domain 1) and on BRD-4 (Domain 2) was greater than 7.00 in each case.

As to `Cc1nnn2c1-c1ccc(C(=O)NO)cc1N(c1ccc(Cl)cc1)CC2` [Example 44, 7-(4-Chlorophenyl)-N-hydroxy-1-methyl-6,7-dihydro-5H-benzo[f][1,2,3]triazolo[1,5-d][1,4]diazepine-9-carboxamide], the pIC50 at BRD-4 (Domain 1), on BRD-2 (Domain 2), on BRD-4 (Domain 2) and on BRD-2 (Domain 1) was greater than 7.00 in each case.

Take `Cc1nnn2c1-c1ccc(C#N)cc1N(c1ccc(Cl)cc1)CC2` [Example 47, 7-(4-chlorophenyl)-1-methyl-6,7-dihydro-5H-benzo[f][1,2,3]triazolo[1,5-d][1,4]diazepine-9-carbonitrile]: the pIC50 on BRD-4 (Domain 1) and at BRD-4 (Domain 2) was greater than 7.00 each time.

As to `CON(C)C(=O)c1ccc2c(c1)N(c1ccc(Cl)cc1)CCn1nnc(C)c1-2` [Example 48, 7-(4-Chlorophenyl)-N-methoxy-N, 1-dimethyl-6,7-dihydro-5H-benzo[f][1,2,3]triazolo[1,5-d][1,4]diazepine-9-carboxamide], the pIC50 on BRD-4 (Domain 1), on BRD-2 (Domain 2), on BRD-4 (Domain 2) and at BRD-2 (Domain 1) was greater than 7.00 throughout.

On to `Cc1nnn2c1-c1ccc(C(O)C(F)(F)F)cc1N(c1ccc(Cl)cc1)CC2` (centres unmarked) [Example 50, 1-(7-(4-Chlorophenyl)-1-methyl-6,7-dihydro-5H-benzo[f][1,2,3]triazolo[1,5-d][1,4]diazepin-9-yl)-2,2,2-trifluoroethanol], for which the negative logarithm of the IC50 (pIC50) at BRD-4 (Domain 1) and at BRD-4 (Domain 2) was greater than 7.00 each time.
